Measurements from PubChem BioAssay AID248 (DTP/NCI, 2004).
Values joined by “and” are separate entries in the source; they are usually repeats but may differ in a detail not shown here. Equal values may be shown once. Inconclusive results and toxic doses are left out. Cut-off read from the data, not from the text of the source: active = T/C of 150% or more; inactive = T/C below 125%.

Tested on: L1210 leukemia ip in BDF1 mice, survival T/C
Assay: NCI In Vivo Anticancer Drug Screen. Data for tumor model L1210 Leukemia (intraperitoneal) in B6D2F1 (BDF1) mice
Settings: endpoint: mean survival time, higher = longer survival
Summary of the method: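 Transplanted-tumor mice were given test agent; controls received vehicle only. Survival readings from the two groups were divided (treated over control).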

[1] = dose: 100.0 mg/kg/injection, schedule: Q01DX009 (ip), vehicle: saline with Tween-80
[2] = dose: 200.0 mg/kg/injection, schedule: Q01DX009 (ip), vehicle: saline with Tween-80
[3] = dose: 400.0 mg/kg/injection, schedule: Q01DX009 (ip), vehicle: saline with Tween-80
[4] = dose: 100.0 mg/kg/injection, schedule: Q01DX001 (ip), vehicle: saline with Tween-80
[5] = dose: 100.0 mg/kg/injection, schedule: Q04DX002 (ip), vehicle: saline with Tween-80
[6] = dose: 100.0 mg/kg/injection, schedule: Q04DX003 (ip), vehicle: saline with Tween-80
[7] = dose: 200.0 mg/kg/injection, schedule: Q01DX001 (ip), vehicle: saline with Tween-80
[8] = dose: 200.0 mg/kg/injection, schedule: Q04DX002 (ip), vehicle: saline with Tween-80
[9] = dose: 200.0 mg/kg/injection, schedule: Q04DX003 (ip), vehicle: saline with Tween-80
[10] = dose: 400.0 mg/kg/injection, schedule: Q01DX001 (ip), vehicle: saline with Tween-80
[11] = dose: 400.0 mg/kg/injection, schedule: Q04DX002 (ip), vehicle: saline with Tween-80
[12] = dose: 400.0 mg/kg/injection, schedule: Q04DX003 (ip), vehicle: saline with Tween-80
[13] = dose: 100.0 mg/kg/injection, schedule: Q01DX009 (ip), vehicle: Klucel (hydroxypropylcellulose) (HPC)
[14] = dose: 200.0 mg/kg/injection, schedule: Q01DX009 (ip), vehicle: Klucel (hydroxypropylcellulose) (HPC)
[15] = dose: 100.0 mg/kg/injection, schedule: Q04DX003 (ip), vehicle: Klucel (hydroxypropylcellulose) (HPC)
[16] = dose: 12.5 mg/kg/injection, schedule: Q04DX003 (ip), vehicle: Klucel (hydroxypropylcellulose) (HPC)

Measured: T/C

COc1ccc(-c2cc(C(=O)O)c3ccc(C)cc3n2)cc1
inactive: [1] 103 % of control | [2] 95 % of control | [3] 96 % of control

CCSC(SCC)C(OC(C)=O)C(OC(C)=O)C(OC(C)=O)C(C)OC(C)=O (stereo not drawn)
inactive: [4] 99 % of control | [1] 95 % of control and 89 % of control | [5] 93 % of control and 105 % of control | [6] 107 % of control | [7] 103 % of control | [2] 98 % of control and 100 % of control | [8] 94 % of control and 92 % of control | [9] 91 % of control | [10] 101 % of control | [3] 87 % of control and 88 % of control | [11] 100 % of control and 87 % of control | [12] 93 % of control

O=C(COc1ccc(Cl)cc1)Nc1ccc[n+](Cc2ccc(S(=O)(=O)F)cc2)c1
inactive: [13] 105 % of control | [14] 101 % of control

CCCCC/C=C/c1c(C)[nH]c2ccccc2c1=O
inactive: [13] 118 % of control | [15] 100 % of control | [14] 94 % of control | dose: 200.0 mg/kg/injection, schedule: Q04DX003 (ip), vehicle: Klucel (hydroxypropylcellulose) (HPC) 96 % of control | dose: 400.0 mg/kg/injection, schedule: Q01DX009 (ip), vehicle: Klucel (hydroxypropylcellulose) (HPC) 99 % of control | dose: 400.0 mg/kg/injection, schedule: Q04DX003 (ip), vehicle: Klucel (hydroxypropylcellulose) (HPC) 89 % of control

O=C(O)C1C2CC3C(C2)C31 (stereo not drawn)
inactive: dose: 100.0 mg/kg/injection, schedule: Q04DX003 (ip), vehicle: other 97 % of control | dose: 200.0 mg/kg/injection, schedule: Q04DX003 (ip), vehicle: other 98 % of control | dose: 400.0 mg/kg/injection, schedule: Q04DX003 (ip), vehicle: other 88 % of control

N#CCCNC(Cc1ccc(O)cc1)C(=O)O (stereo not drawn)
inactive: [16] 104 % of control | dose: 25.0 mg/kg/injection, schedule: Q01DX009 (ip), vehicle: Klucel (hydroxypropylcellulose) (HPC) 104 % of control | dose: 25.0 mg/kg/injection, schedule: Q04DX003 (ip), vehicle: Klucel (hydroxypropylcellulose) (HPC) 98 % of control | dose: 50.0 mg/kg/injection, schedule: Q01DX009 (ip), vehicle: Klucel (hydroxypropylcellulose) (HPC) 95 % of control | dose: 50.0 mg/kg/injection, schedule: Q04DX003 (ip), vehicle: Klucel (hydroxypropylcellulose) (HPC) 104 % of control | [13] 106 % of control | [15] 100 % of control

c1ccc(CC2NCCc3ccccc32)cc1 (stereo not drawn)
inactive: dose: 25.0 mg/kg/injection, schedule: Q04DX003 (ip), vehicle: acetone 102 % of control | dose: 25.0 mg/kg/injection, schedule: Q04DX003 (ip), vehicle: saline with Tween-80 99 % of control | dose: 50.0 mg/kg/injection, schedule: Q04DX003 (ip), vehicle: acetone 102 % of control | dose: 50.0 mg/kg/injection, schedule: Q04DX003 (ip), vehicle: saline with Tween-80 94 % of control | dose: 100.0 mg/kg/injection, schedule: Q01DX001 (ip), vehicle: acetone 89 % of control | dose: 100.0 mg/kg/injection, schedule: Q04DX003 (ip), vehicle: acetone 91 % of control | [6] 102 % of control

O=C(O)CCC(=O)Nc1ccccc1C(F)(F)F
inactive: [6] 104 % of control | [2] 93 % of control | [9] 98 % of control | [3] 86 % of control | [12] 90 % of control

CCCCCCCCCCCC(=O)NC(=S)Nc1cccc(Cl)c1
inactive: [4] 93 % of control | [1] 107 % of control and 89 % of control | [5] 122 % of control and 91 % of control | [7] 93 % of control | [2] 96 % of control and 86 % of control | [8] 97 % of control and 119 % of control | [10] 90 % of control | [11] 105 % of control and 92 % of control

CCNC(=S)C(=S)NCC
inactive: dose: 3.0 mg/kg/injection, schedule: Q01DX009 (ip), vehicle: Klucel (hydroxypropylcellulose) (HPC) 92 % of control | dose: 3.12 mg/kg/injection, schedule: Q04DX003 (ip), vehicle: Klucel (hydroxypropylcellulose) (HPC) 100 % of control | dose: 6.0 mg/kg/injection, schedule: Q01DX009 (ip), vehicle: Klucel (hydroxypropylcellulose) (HPC) 97 % of control | dose: 6.25 mg/kg/injection, schedule: Q04DX003 (ip), vehicle: Klucel (hydroxypropylcellulose) (HPC) 104 % of control | [16] 98 % of control and 106 % of control

CN=C(c1ccc(NC(=O)c2ccc(C(=O)Nc3ccc(C(=NC)N4CCOCC4)cc3)c(Cl)c2)cc1)N1CCOCC1
inactive: dose: 0.94 mg/kg/injection, schedule: Q01DX Z (ip), vehicle: carboxymethylcellulose (CMC) 104 % of control | dose: 1.87 mg/kg/injection, schedule: Q01DX Z (ip), vehicle: carboxymethylcellulose (CMC) 101 % of control | dose: 3.75 mg/kg/injection, schedule: Q01DX Z (ip), vehicle: carboxymethylcellulose (CMC) 98 % of control | dose: 7.5 mg/kg/injection, schedule: Q01DX Z (ip), vehicle: carboxymethylcellulose (CMC) 87 % of control | dose: 15.0 mg/kg/injection, schedule: Q01DX Z (ip), vehicle: carboxymethylcellulose (CMC) 91 % of control | dose: 30.0 mg/kg/injection, schedule: Q01DX Z (ip), vehicle: carboxymethylcellulose (CMC) 91 % of control | dose: 60.0 mg/kg/injection, schedule: Q01DX Z (ip), vehicle: carboxymethylcellulose (CMC) 91 % of control

O=C(CCl)N1CCN(C(=O)CCl)CC1
inactive: dose: 10.0 mg/kg/injection, schedule: Q01DX009 (ip), vehicle: Klucel (hydroxypropylcellulose) (HPC) 110 % of control | dose: 20.0 mg/kg/injection, schedule: Q01DX009 (ip), vehicle: Klucel (hydroxypropylcellulose) (HPC) 101 % of control | dose: 20.0 mg/kg/injection, schedule: Q04DX003 (ip), vehicle: Klucel (hydroxypropylcellulose) (HPC) 104 % of control | dose: 40.0 mg/kg/injection, schedule: Q04DX003 (ip), vehicle: Klucel (hydroxypropylcellulose) (HPC) 106 % of control

c1ccc(OP2OCCO2)cc1
inactive: dose: 50.0 mg/kg/injection, schedule: Q01DX009 (ip), vehicle: saline 92 % of control | dose: 50.0 mg/kg/injection, schedule: Q04DX003 (ip), vehicle: saline 105 % of control | dose: 100.0 mg/kg/injection, schedule: Q01DX009 (ip), vehicle: saline 102 % of control | dose: 100.0 mg/kg/injection, schedule: Q04DX003 (ip), vehicle: saline 102 % of control | dose: 200.0 mg/kg/injection, schedule: Q01DX009 (ip), vehicle: saline 92 % of control | dose: 200.0 mg/kg/injection, schedule: Q04DX003 (ip), vehicle: saline 103 % of control

COc1cc(C=Nc2ccc(Cl)cc2)ccc1O
inactive: [1] 97 % of control | [6] 120 % of control | [2] 94 % of control | [9] 96 % of control | [3] 101 % of control | [12] 103 % of control
